Laboratory results as given in US12714721B2, “Methods of treatment of a cytokine storm” (Loma Linda University Health, priority 2020, dated 2026).
Entries after “also recorded” stand apart in the source; their conditions may differ.

Legend:
Type in all cases: in vivo, mouse
kidneys = experiment: Vascular leakage permeability assay (Evans blue dye), kidney; conditions: day 1 (FIG. 5A)
Experimental: (§1) Experimental Design for IGF-1 and BTP-2 studies—The animal experiments involved B6 mice between 5-8 weeks of age. Most experiments involved five groups of animals: (1) healthy, (2) LPS untreated (LPS-No Tx), (3) IGF-I in vivo gene therapy one day before LPS injection (LPS+IGF-1), (4) BTP-2 16 mg/kg i.p. at the start of the study and the (5) combined therapy with IGF-I and BTP-2 (LPS-IGF-1+BTP-2). For the survival experiment, a lethal dose of LPS (25 mg/kg) was used and all of the untreated animals died by 72 hours. In the other experiments, a sublethal dose of LPS (20 mg/kg) was used.
LPS induced sepsis and subsequent AKI—Female C57BL/6 mice received a sublethal or lethal dose of LPS from E. coli (0127: B8 strain, Sigma Aldrich, St. Louis, MO, USA) in a concentration of 20 or 25 mg/kg body weight administrated in sterile PBS by intraperitoneal injection. […]
Vascular leakage permeability assay—Evans blue dye (EBD) was dissolved in a 0.9% saline solution at a concentration of 5 mg/mL and injected to the mouse tail vein (50 mg/kg, i.v.). […] The absorbance of the supernatants was measured at 620 and 740 nm using a dual-wave ELISA plate reader.

[1] = tested on: LPS induced sepsis and subsequent AKI; experiment: Renal function assessment: serum creatinine in LPS induced AKI
Experimental: as §1
(§2) LPS induced sepsis and subsequent AKI—Female C57BL/6 mice received a sublethal or lethal dose of LPS from E. coli (0127: B8 strain, Sigma Aldrich, St. Louis, MO, USA) in a concentration of 20 or 25 mg/kg body weight administrated in sterile PBS by intraperitoneal injection.
(§3) Treatment—In a preventive therapeutic strategy, some of the mice received an intramuscular injection of Lenti-IGF-1 24 hours before LPS injection; whereas, the calcium signaling blocker BTP-2 (16 mg/kg, Cayman Chemical) was administrated 1 hour before LPS injection. Some of the animals received a combination of Lenti-IGF-1 and BTP-2. Control group mice were injected with an equal volume of PBS.
[…] Serum creatinine (CREA) were detected by Creatinine Assay Kit (Cayman Chemicals).

whole kidney tissue = experiment: Measurements of mRNA expression in the kidney (real-time PCR), LPS-induced AKI; conditions: for Orai1 gene expression: 7 days after LPS 20 mg/kg (FIG. 2E); for NGAL gene expression: 7 days after LPS (FIG. 6C); for proinflammatory cytokines gene expression (IL-1b, IL-17, IL-6, TNF-α, IL-18): 7 days after LPS (FIGS. 3A-3E)
Experimental: as §1, §2, §3
Measurements of mRNA Expression in the Kidney—For the measurement of the mRNA expressions of whole kidney tissue, we performed real-time PCR. The relative amount of mRNA was calculated using the comparative Ct(ΔΔCt) method. All specific amplicons were normalized against GAPDH.

kidney = experiment: Renal histology (CD31 and α-SMA staining, PAS staining, tubular injury score); conditions: for PECAM (CD-31) staining: renal sections (FIGS. 4A-4E); for α-SMA staining: renal sections (FIGS. 4F-4J)
Experimental: as §1, §2, §3
Renal Histology—After sacrificing the mice, one part of the kidney was immediately cut, fixed in a 10% neutral buffered formalin solution, embedded in paraffin, and used for histopathological examination. 10-micrometer-thick sections were cut, deparaffinized, and hydrated. All renal serial sections were incubated at 4° C. overnight with one of two antibodies; rabbit polyclonal antibody against PECAM (CD31) (Santa Cruz, MA) or rabbit polyclonal antibody against α-SMA (Abcam, MA). After washing with TBST, biotinylated goat anti-rabbit IgG (1:200, Vector Labs, Burlingame, CA) were applied to the sections for 30 min at room temperature. Sections then were incubated with Streptavidin-HRP (Vector Labs, Burlingame, CA) for 30 min at room temperature. Diaminobenzidine (DAB; Vector Labs, Burlingame, CA) was used as the chromogen and hematoxylin as the counterstain. One part of the kidney was stained with periodic acid Schiff (PAS) stain. The PAS stained sections were examined for renal morphology in an automated fashion by quantification of a glycogen specific color in the kidney tissue using ImageJ (National Institutes of Health, Bethesda, MD, USA). A minimum of 10 fields for each kidney slide were examined and scored for pathological injury. […] The average histological score for each sample was calculated. The images were captured with an Olympus BX51 microscope, 40× magnification. (Olympus, Center Valley, PA).

lung = experiment: Lung immunocytochemistry (CD31, α-SMA); conditions: lung sections (FIG. 14A)
Experimental: Acute Lung Injury Induced by LPS—Female C57BL/6 mice received a sublethal or lethal dose of LPS from Escherichia coli (0127: B8 strain, Sigma Aldrich, St. Louis, MO, USA). LPS in sterile PBS was administered intraperitoneally at 20- or 25-mg/kg body weight.
Treatment for Lung Studies-Lenti-IGF-I was administered intramuscularly 24 h before LPS injection. The TRP and ORAI calcium channel blocker BTP-2 (YM-58483 16 mg/kg, Cayman Chemical, Ann Arbor, MI, USA) was given IP 1 h before LPS injection. Some of the animals received a combination of lenti-IGF-I and BTP-2. Mice in control groups were injected with an equal volume of PBS.
Lung Immunocytochemistry—After the mice were sacrificed, one part of the lung was immediately cut, fixed in a 10% neutral-buffered formalin solution, embedded in paraffin, and used for histopathological examination. Ten-micrometer-thick sections were cut, deparaffinized, and hydrated. All lung serial sections were incubated at 4° C. overnight with one of two antibodies: rabbit polyclonal antibody against PECAM (CD31) (Santa Cruz Biotechnology, Dallas, TX, USA) or rabbit polyclonal antibody against α-SMA (Abcam, Cambridge, MA, USA). After washing, biotinylated goat anti-rabbit IgG (1:200, Vector Labs, Burlingame, CA, USA) were applied to the sections for 30 min at room temperature. […]

[2] = at 48 hours after LPS (FIG. 6A)

Row | Compound | vascular leakage (extravasation of Evans blue dye) (kidneys) | serum creatinine ([1]; LPS i.p. day 0, measured 7 days later, IGF-I gene therapy one day prior to LPS (FIG. 1B)) | serum creatinine [1, 2] | Orai1 gene expression (whole kidney tissue) | NGAL gene expression (whole kidney tissue) | proinflammatory cytokines gene expression (IL-1b, IL-17, IL-6, TNF-α, IL-18) (whole kidney tissue) | PECAM (CD-31) staining (kidney) | α-SMA staining (kidney) | immunocytochemical evaluation of CD31 (% of the area of CD31 staining) (lung) | Nf-kB gene expression (whole kidney tissue; 7 days after LPS (FIG. 2C)) | CD31 gene expression (whole kidney tissue; 7 days after LPS (FIG. 5C))
1 | IGF-I: Insulin-like Growth Factor, delivered by a lentiviral vector engineered to express IGF-I injected into skeletal muscle | improved | normalized | improved | decreased Orai1 expression | improved | decreased | improved | improved | significantly improved |  | 
2 | Cc1nnsc1C(=O)Nc1ccc(-n2nc(C(F)(F)F)cc2C(F)(F)F)cc1 [BTP-2, 3,5-bis(trifluoromethyl)pyrazole derivative] | more so |  | normalized | decreased Orai1 expression to normal; also recorded: marked decrease | improved | decreased | improved | improved | significantly improved | decreased | increased
